Measurements from patent US20220402862A1 (Intellia Therapeutics, Inc., priority 2019, published 2022).
“And” between values parts separate entries of the source, which are not always exact repeats. Equal entries are not always repeated.

Legend:
[1] = pKa measurement of unformulated amine lipid (fluorescence, method of Jayaraman et al.); type: physicochemical; conditions: 100 μM in 0.1 M phosphate buffer, pH 2.0-12.0
Method: The pKa of each amine lipid was determined according to the method in Jayaraman, et al. (Angewandte Chemie, 2012) with the following adaptations. […] Lipid was diluted to 100 μM in 0.1 M phosphate buffer (Boston Bioproducts) where the pH ranged from 2.0-12.0. Fluorescence intensity was measured using excitation and emission wavelengths of 321 nm and 448 nm.

[2] = Dynamic light scattering of LNPs: Z-average diameter, number average diameter, PDI; type: physicochemical
Summary of the method: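 Values reported are the Z-average (intensity-weighted mean size), the number-average diameter and the PDI (spread of sizes, 0 = fully uniform). All three came from dynamic light scattering of LNP preparations after dilution in PBS.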

TTR rat gene = assay: In vivo editing in rat liver, sgRNA targeting TTR (G534), % indel by NGS; set-up: species or system Sprague Dawley female rats; conditions: G534 sgRNA + Cas9 mRNA LNP, Experiment 109
Method: Sprague Dawley female rats ranging from 6-7 weeks of age were used in each study. Each animal was weighed and dosing solutions were prepared based on body weight. LNPs were dosed via the lateral tail vein in a volume of 0.35 mL per animal (approximately 2 mL per kilogram body weight). The animals were periodically observed for adverse effects for at least 24 hours post dose.
For studies measuring in vivo editing in liver, animals were dosed at 0.1 mg/kg or 0.3 mg/kg. Animals were euthanized by CO2 asphyxiation 6 days post dose. At necropsy, the liver was collected for editing analysis by NGS and blood was collected into serum separator tubes for serum TTR measurement.
In brief, to quantitatively determine the efficiency of editing at the target location in the genome, genomic DNA was isolated and deep sequencing was utilized to identify the presence of insertions and deletions introduced by gene editing.
PCR primers were designed around the target site (e.g., within B2M), and the genomic area of interest was amplified. Additional PCR was performed according to the manufacturer's protocols (Illumina) to add the necessary chemistry for sequencing. The amplicons were sequenced on an Illumina MiSeq instrument. The reads were aligned to the mouse or rat reference genome (e.g., GRCm38) after eliminating those having low quality scores. The resulting files containing the reads were mapped to the reference genome (BAM files), where reads that overlapped the target region of interest were selected and the number of wild type reads versus the number of reads which contain an insertion, substitution, or deletion was calculated.
The editing percentage (e.g., the “indel efficiency” or “percent indels”) was defined as the total number of sequence reads with insertions or deletions over the total number of sequence reads, including wild type.
In vivo delivery in a rat model was assessed by measuring editing efficiency for materials delivered with formulations including various amine lipid compounds. Cas9 mRNA (SEQ ID NO: 6) was formulated as LNPs with an sgRNA targetting the TTR rat gene (G534, SEQ ID NO: 5). LNPs were formulated and characterized as described in Example 123. Analysis of average particle size, polydispersity (PDI), total RNA content and encapsulation efficiency of RNA are shown in Table 10.
Sprague Dawley female rats were dosed i.v. at 0.1 or 0.3 mg/kg and assessed for editing in liver.

[3] = RNA encapsulation efficiency of LNPs (Ribogreen fluorescence assay); type: physicochemical; conditions: for % E (encapsulation efficiency): LNP with G534 sgRNA and Cas9 mRNA, sg:mRNA 1:2, experiment 109; for % E / Encapsulation (%): LNP
Summary of the method: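 Encapsulation efficiency is (Total RNA − Free RNA)/Total RNA. Free RNA was quantified by RiboGreen fluorescence (488/525 nm, ~10 min, RT, dark) in plain TE buffer; total RNA was quantified after LNP lysis with 0.2% Triton X-100, both against RNA standard curves.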

[4] = LNP with G534 sgRNA and Cas9 mRNA, sg:mRNA 1:2, experiment 109
[5] = LNP, sg:mRNA 1:1, N/P 6.0, 50/9/38/3, Table 4, Experiments 101-104
[6] = LNP, sg:mRNA 1:1, N/P about 6, 50/9/38/3, Table 2, Experiments 2-20
[7] = LNP, sg:mRNA 1:2, N/P 6.0, 50/9/38/3, Table 4, Experiment 105
[8] = sg:mRNA 1:1, N/P 6.0, 50/9/38/3, Table 4, Experiments 101-104
[9] = sg:mRNA 1:1, N/P about 6, amine lipid/DSPC/cholesterol/PEG-2k-DMG 50/9/38/3, Table 2, Experiments 2-20
[10] = sg:mRNA 1:2, N/P 6.0, 50/9/38/3, Table 4, Experiment 105
[11] = LNP, sg:mRNA 1:1.3, N/P about 6, 50/9/38/3, Table 2, Experiment 1
[12] = LNP, sg:mRNA 1:2, N/P about 6, 50/9/38/3, G650, Table 8, Experiment 108
[13] = LNP, sg:mRNA 1:2, N/P about 6, 50/9/38/3, Table 6, Experiments 106-107
[14] = sg:mRNA 1:2, N/P about 6, 50/9/38/3, G650 sgRNA, Table 8, Experiment 108

Row | Structure (SMILES) | pKa [1] | Number mean (nm) [2, 4] [nm] | PDI [2, 4] | Z-avg (nm) [2, 4] [nm] | Number mean (nm) [2, 5] | PDI [2, 5] | Z-avg (nm) [2, 5] | Number mean (nm) [2, 6] | Z-avg (nm) [2, 6] | Number mean (nm) [2, 7] [nm] | PDI [2, 7] | Z-avg (nm) [2, 7] [nm] | Editing Mean % Indel (TTR rat gene; i.v. 0.1 mg/kg) [%] | Editing Mean % Indel (TTR rat gene; i.v. 0.3 mg/kg) [%] | % E (encapsulation efficiency) [3] [%] | % E [3, 8] | Encapsulation (%) [3, 9] | % E [3, 10] [%] | Number mean (nm) [2, 12] [nm] | PDI [2, 6] | other results
1 | CCCCCCCCCCOC(=O)CCCCCCCC(=O)OCC(COC(=O)CCC(OCCCCCCCC)OCCCCCCCC)COC(=O)OCCCN(CC)CC (stereo not shown) [Compound 59, 1-(3-((4,4-bis(octyloxy)butanoyl)oxy)-2-((((3-(diethylamino)propoxy)carbonyl)oxy)methyl)propyl) 9-decyl nonanedioate] | 6.4 | 75 | 0.04 | 91 | 72.60 nm and 67.12 nm | 0.012 and 0.024 | 87.31 nm and 83.42 nm | 84.05 nm and 73.04 nm | 100.4 nm and 87.86 nm | 79.11 | 0.041 | 96.76 | 12.4 | 46.2 | 98 | 98% and 96% | 99% and 97% | 99 | – | – | –
2 | CCCCC/C=C\C/C=C\CCCCCCCC(=O)OCC(COC(=O)CCC(OCCCCCCCC)OCCCCCCCC)COC(=O)OCCCN(CC)CC (stereo not shown) [Compound 1, 3-((4,4-bis(octyloxy)butanoyl)oxy)-2-((((3-(diethylamino)propoxy)carbonyl)oxy)methyl)propyl (9Z,12Z)-octadeca-9,12-dienoate, reference compound] | 6.4 | 73 | 0.01 | 88 | 69.51 nm and 62.86 nm and 64.97 nm and 63.19 nm | – | 84.93 nm and 79.83 nm and 82.71 nm and 79.18 nm | – | – | 73.15 | 0.033 | 88.60 | 21.1 | 61.3 | 98 | 98% and 99% and 97% | 96% and 99% and 98% and 97% | 99 | 70 | – | Number mean (nm) [2, 11]: 63.16 nm; PDI [2, 11]: 0.022; Z-avg (nm) [2, 11]: 77.85 nm; PDI [2, 12]: 0.03; Z-avg (nm) [2, 12]: 86 nm; Number mean (nm) [2, 13]: 76 nm and 71 nm; Z-avg (nm) [2, 13]: 91 nm and 88 nm; Encapsulation (%) ([3]; sg:mRNA 1:1.3, N/P about 6, amine lipid/DSPC/cholesterol/PEG-2k-DMG 50/9/38/3, Table 2, Experiment 1): 97%; % E [3, 14]: 98%; % E ([3]; sg:mRNA 1:2, N/P about 6, 50/9/38/3, TTR sgRNA (SEQ ID NO: 4), Table 6, Experiments 106-107): 99%
3 | CCCCC/C=C\C/C=C\CCCCCCCC(=O)OCC(COC(=O)CC12CC3CC(CC(C3)C1)C2)COC(=O)OCCCN(CC)CC (stereo not shown) [Compound 107, 3-(2-((3 r,5 r, 7r)-adamantan-1-yl)acetoxy)-2-((((3-(diethylamino)propoxy)carbonyl)oxy)methyl)propyl (9Z,12Z)-octadeca-9,12-dienoate] | 6.43 | – | – | – | – | – | – | – | – | – | – | – | – | – | – | – | – | – | 65 | – | PDI [2, 12]: 0.07; Z-avg (nm) [2, 12]: 84 nm; % E [3, 14]: 94%
4 | CCCCCCCCCC(C)OC(=O)CCCCCCCC(=O)OCC(COC(=O)CCC(OCCCCCCCC)OCCCCCCCC)COC(=O)OCCCN(CC)CC (stereo not shown) [Compound 94, 1-(344,4-bis(octyloxy)butanoyl)oxy)-2-((((3-(diethylamino)propoxy)carbonyl)oxy)methyl)propyl) 9-(undecan-2-yl) nonanedioate] | 6.14 | 77 | 0.02 | 95 | – | – | – | 78.22 nm | 96.35 nm | 80.04 | 0.032 | 98.90 | 31.7 | 60.0 | 97 | – | 99% | 99 | – | 0.018 | –
5 | CCCCC/C=C\C/C=C\CCCCCCCC(=O)OCC(COC(=O)CCC(OCCCCCCCC)OCCCCCCCC)COC(=O)NCC1CCCN1CC (stereo not shown) [Compound 40, 3-((4,4-bis(octyloxy)butanoyl)oxy)-2-(((((1-ethylpyrrolidin-2-yl)methyl)carbamoyl)oxy)methyl)propyl (9Z,12Z)-octadeca-9,12-dienoate] | 7.33 | – | – | – | 66.92 nm | 0.014 | 83.69 nm | 56.73 nm | 74.12 nm | – | – | – | – | – | – | 95% | 98% | – | – | 0.056 | –
6 | CCCCC/C=C\C/C=C\CCCCCCCC(=O)OCC(COC(=O)CCC(OCCCCCCCC)OCCCCCCCC)COC(=O)OCC1CCCN(C)C1 (stereo not shown) [Compound 53, 3-((4,4-bis(octyloxy)butanoyl)oxy)-2-(((((1-methylpiperidin-3-yl)methoxy)carbonyl)oxy)methyl)propyl (9Z,12Z)-octadeca-9,12-dienoate] | 6.85 | – | – | – | 56.05 nm | 0.019 | 70.47 nm | 60.35 nm | 76.24 nm | – | – | – | – | – | – | 99% | 99% | – | – | 0.040 | –
